Measurements as given in PMC9916778 (International Journal of Molecular Sciences, 2023).
Like-named read-outs stand apart in the source and are kept apart here.

Experiments:
[1] = system: MRC5 human fetal fibroblasts; experiment: In vitro cytotoxicity (MTT assay), normal MRC-5 fibroblasts; type: cell-based; settings: ± standard deviation, triplicate, read-out: IC50, MRC5 (healthy cells)
Procedure: (§1) The testing was performed on the ovarian carcinoma (A2780), Cisplatin-resistant ovarian carcinoma (A2780R), prostate adenocarcinoma (PC-3), prostate carcinoma (22Rv1), and leukemia monocytic (THP-1) and intestinal colon adenocarcinoma (LS180) human cell lines that were obtained from the ATCC collection of cell lines and cultivated according to the producer’s instructions. The reference normal cell line of human fetal fibroblasts (MRC-5) was obtained from the same commercial source and maintained according to the producer’s instructions. The half-maximal inhibitory concentrations (IC50) were calculated from dose–response curves by means of the GraphPad Prism 6 software (GraphPad Software, San Diego, CA, USA).

[2] = system: human cancer cell lines (A2780, A2780R, PC-3, 22Rv1, and THP-1); experiment: In vitro cytotoxicity, summary statements over the panel of cell lines; type: cell-based; settings: for IC50: A2780, A2780R
Procedure: as §1

PPARγ = experiment: Immunocytochemical analysis of PPARγ expression and localisation; type: cell-based, human; settings: 100 nM, 1 h pre-treatment, LPS-stimulated THP1-Blue NF-κB macrophages
Procedure: THP1-Blue™ NF-κB cells were seeded onto a µ-Slide 8 Well (Ibidi; Gräfelfing, Germany) and differentiated into macrophages by […] (PMA) at the final concentration of 50 ng/mL, as was described previously.
Differentiated macrophages were washed by PBS and covered by fresh serum-free medium for 2 h. […] One hour later, the cells were challenged by LPS for 24 h. Then, the cells were washed by PBS and fixed by 4% paraformaldehyde dissolved in PBS for 10 min. Cell permeabilization and blocking of free binding sites were performed by 0.1% (v/v) Triton X100 and 5% (w/v) bovine serum albumin (BSA) dissolved in PBS for 1 h at room temperature. After that, cells were washed by PBS with 0.1% (v/v) Tween 20 and covered by fresh PBS with 5% BSA and 0.1% Tween 20 containing Alexa Fluor® 546-labelled anti-PPARγ antibody diluted 1:100 (catalogue number sc-7273; Santa Cruz Biotechnology; Dallas, TX, USA) for a further 24 h. Then, cells were washed by PBS with 0.1% Tween 20 and incubated with Hoechst stain diluted 1:2000 for 10 min. The remaining stain was washed out by PBS and covered by fresh PBS for further microscope analysis. The confocal microscope Leica TCS SP8 MP (Leica Microsystems, Mannheim, Germany) was used for obtaining the images for the immunocytochemical analysis of PPARγ expression and localization.

MCF-7 cells = settings: literature data ref 22; cited from earlier work
THP1-Blue™ NF-κB cells = experiment: Cell viability, CCK-8, serum-free medium; type: cell-based, human; settings: THP1-Blue NF-κB cells, serum-free medium, 24 h treatment, CCK-8; read-out: IC50 ± SEM, cytotoxic effect
Procedure: The cells were cultivated in RPMI (Roswell Park Memorial Institute) 1640 medium (Biosera; Nuaille, France) supplemented with 10% fetal bovine serum (FBS) and antibiotics (100 U/mL penicillin and […] streptomycin) (both from Merck). All further experiments were performed in serum-free medium. The effect of the test compounds dissolved in DMF on cell viability after 24 h incubation was determined using a Cell Counting Kit-8 (CCK-8; Merck) according to the manufacturer’s instructions, similarly as previously described.

[3] = system: PC-3 prostate adenocarcinoma cells; experiment: In vitro cytotoxicity (MTT assay), PC-3; type: cell-based, human; settings: ± standard deviation, triplicate
Procedure: as §1

[4] = system: A2780 ovarian carcinoma cells; experiment: In vitro cytotoxicity (MTT assay), A2780; type: cell-based, human
Procedure: The reference normal cell line of human fetal fibroblasts (MRC-5) was obtained from the same commercial source and maintained according to the producer’s instructions. The half-maximal inhibitory concentrations (IC50) were calculated from dose–response curves by means of the GraphPad Prism 6 software (GraphPad Software, San Diego, CA, USA).

[5] = system: A2780R Cisplatin-resistant ovarian carcinoma cells; experiment: In vitro cytotoxicity (MTT assay), A2780R; type: cell-based, human; settings: ± standard deviation, triplicate
Procedure: as §1

caspases 3/7 = experiment: Caspase 3/7 activation (flow cytometry); type: cell-based, human; settings: A2780, half-cytotoxic concentration, 24 h
Procedure: (§2) The induction of cell death by complex (1) was studied by two methods in the A2780 cell line. Firstly, the induction of apoptosis was tested using an Annexin V-FITC/PI commercial kit (V13242, Thermo Fisher Scientific, USA). Second, caspase 3/7 activation was monitored using the CellEvent™ Caspase-3/7 Green Flow Cytometry Assay Kit (C10427, Thermo Fisher Scientific, USA). Both assays were performed according to the manufacturers’ protocols with one modification in the caspase induction assay: the use of CellEvent^TM Caspase-3/7 Green Detection Reagent was only for the detection of caspase 3/7 activation. The general procedure was as follows: 5 × 10^4 cells per well were seeded in a 24-well cell culture plate, and after 24 h, the cells were treated with 4 µM solution of complex (1) and cultivated for next 24 h. […] The trypsin was blocked by adding the cell culture medium to a final volume of 500 µL, and the resulting cell suspensions were divided into two separate 250 µL aliquots. The first set of aliquots was used to evaluate the Annexin V-FITC/PI assay, whilst the second one was used for the caspase 3/7 activation assay. Both assays were performed using a BD FACSVerse flow cytometer (Becton Dickinson, USA) in three independent experiments, each performed in duplicate.

A2780 cells [6] = experiment: Intracellular ROS/superoxide production; type: cell-based, human; settings: A2780, half-cytotoxic concentration, 24 h, with or without pyocyanin
Procedure: ROS induction in A2780 cells after incubation with 4 μM complex (1) was studied using a ROS-ID® Total ROS/Superoxide detection kit (Enzo Life Sciences, Farmingdale, NY, USA) according to the manufacturer’s protocol. The cells were seeded in a 96-well cell culture plates at 10^4 cells per well and cultivated for 24 h, followed by 24 h experimental treatment. Then, the cells were stained with ROS/superoxide probe mixture and incubated at 37 °C in the dark for 60 min. Finally, the fluorescence was measured using a microplate reader Infinite M200Pro (Tecan, Männedorf, Switzerland). The control samples contained 500 µM pyocyanin, and three independent experiments were conducted, each in triplicate.

A2780 cells [7] = experiment: Cell cycle analysis (flow cytometry); type: cell-based, human; settings: A2780, half-cytotoxic concentration, 24 h; for Number of cells in the G0/G1 phase: vs untreated control
Procedure: After 24 h, the cells were treated with a 4 µM solution of complex (1) and cultivated for the next 24 h. Then, the cells were washed once with PBS (0.1 M, pH 7.4), and cell cycle analysis was performed using a BD Cycletest^TM Plus DNA kit (Becton Dickinson, Franklin Lakes, NJ, USA) according to the manufacturer’s protocol. The data were acquired using a BD FACSVerse flow cytometer (Becton Dickinson, USA) in three independent experiments, each performed in duplicate, while at least 5 × 10^3 events were recorded for each sample.

A2780 cells [8] = experiment: Induction of apoptosis, Annexin V-FITC/PI staining; type: cell-based, human; settings: A2780, half-cytotoxic concentration, 24 h
Procedure: as §2

[9] = system: 22Rv1 prostate carcinoma cells; experiment: In vitro cytotoxicity (MTT assay), 22Rv1; type: cell-based, human; settings: ± standard deviation, triplicate
Procedure: as §1

A2780 cells [10] = experiment: Mitochondrial membrane potential analysis (MITO-ID); type: cell-based, human; settings: A2780, half-cytotoxic concentration, 24 h
Procedure: The A2780 cells were seeded in 24-well cell culture plates at 5 × 10^4 cells/well and cultivated for 24 h. The next day, the complex (1) was added to a final concentration of 4 µM, and the cells were incubated for another 24 h. […] The cells were then isolated by centrifugation and resuspended in a staining solution prepared according to the manufacturer’s protocol from a MITO-ID® Membrane Potential Detection kit (Enzo Life Sciences, USA). Finally, the cells were analyzed using a BD FACSVerse flow cytometer (Becton Dickinson, USA). The control was carried out by treatment with 2 µM carbonyl cyanide 3-chlorophenylhydrazone (CCCP). Three independent experiments were conducted, each in duplicate.

[11] = system: LS180 intestinal colon adenocarcinoma cells; experiment: In vitro cytotoxicity (MTT assay), LS180; type: cell-based, human; settings: ± standard deviation, triplicate
Procedure: as §1

A2780 cells [12] = experiment: Induction of autophagy (CYTO-ID kit); type: cell-based, human; settings: A2780, half-cytotoxic concentration, 24 h
Procedure: The induction of autophagy by complex (1) was studied using a CYTO-ID® Autophagy Detection Kit 2.0 (ENZO, New York, NY, USA) according to the manufacturer’s protocol. Briefly, the A2780 cells were seeded in a 24-well cell culture plate at 5 × 10^4 cells per well and cultivated for 24 h. The next day, the cells were treated with complex (1) at 4 µM. […] Then, the cells were stained with CYTO-ID® Green stain solution and incubated for 30 min in the dark. After the final wash with PBS, the cell suspensions were analyzed using the BD FACSVerse flow cytometer (Becton Dickinson, USA) in three separate experiments, while at least 10^4 events were recorded for each sample prepared in duplicates. The cells incubated with the mixture of chloroquine (10 µM) and rapamycin (0.5 µM) for 18 h were used as a positive control.

[13] = system: THP-1 leukemia monocytic cells; experiment: In vitro cytotoxicity (MTT assay), THP-1; type: cell-based, human; settings: ± standard deviation, triplicate
Procedure: as §1

NF-κB = NF-κB activity in LPS-challenged cells (SEAP reporter); type: cell-based, human; settings: 100 nM, 1 h pre-treatment, LPS 24 h, THP1-Blue NF-κB monocytes
Procedure: The effect of the tested compounds to influence the function of transcription factor NF-κB was determined on lipopolysaccharide (LPS)-challenged THP1-Blue™ NF-κB cells as we described previously. […] After 24 h incubation, the activity of NF-κB was determined as the amount of secreted embryonic alkaline phosphatase using Quanti-Blue™ medium (Invivogen).

A2780 cells [14] = settings: 23 nM concentration ref 25; cited from earlier work
Caco-2 cells = settings: read-out: IC50, antiproliferative effect, Caco-2 cells; cited from earlier work
[15] = MTT, 24 h incubation, ± standard deviation, triplicate, read-out: IC50, A2780

Compound	IC50 [1] [µM]	Effect on the amount of PPARγ (PPARγ)	IC50 [3] [µM]	IC50 [4, 15] [µM]	IC50 [5] [µM]	Cells with active executioner caspases 3/7 (caspases 3/7)	Number of cells in the G0/G1 phase (A2780 cells [7])	IC50 [9] [µM]	Damage to mitochondrial membranes (A2780 cells [10])	IC50 [11] [µM]	Induction of autophagy (A2780 cells [12])	other results
6-furfuryladenine [Kinetin]	> 25	did not show this effect	> 25	> 25	> 25	–	–	–	–	–	–	IC50 ([2]; read-out: IC50 of kinetin, PC-3, concentration range 0.01–25 μM): > 25 µM; IC50 (MCF-7 cells): 52 µM; IC50 (THP1-Blue™ NF-κB cells): > 10 µM
N.N.[Cl][Pt][Cl] [Cisplatin]	> 50	–	> 50	–	> 50	around 50%	significant decrease in the number of cells in the G0/G1 phase	28.2 ± 4.2	Significant changes in mitochondrial membrane permeability	> 50	significantly induced the autophagy	Intracellular oxidative stress, ROS and superoxide levels (A2780 cells [6]): did not cause a significant increase in the intracellular oxidative stress; Effect on the cell cycle (A2780 cells [7]): arrested a significant number of cells in S-phase; Cells in early and late-stage apoptosis (A2780 cells [8]): around 40%
c1ccc([PH]([Au][n]2cnc3c(NCc4ccco4)ncnc32)(c2ccccc2)c2ccccc2)cc1 [[Au(kin)(PPh3)] (1), [Au(kin)(PPh3)]]	> 10	slightly increase the amount of PPARγ	4.8 ± 1.3	2.9 ± 0.7	5 ± 1.5	around 40%	significant decrease in the number of cells in the G0/G1 phase	3.7 ± 0.5	clearly the least effective	> 10	not shown to cause metabolic stress strong enough to induce the autophagy	IC50 [13]: 1.1 ± 0.2 µM; Population of cells in G2/M phase (A2780 cells [7]): 24.8 ± 1.0%; Population of cells in S phase (A2780 cells [7]): 22.6 ± 1.6%; Cells in early stage apoptosis (Annexin V+/PI-) (A2780 cells [8]): around 10%; Cells in late stage apoptosis (Annexin V+/PI+) (A2780 cells [8]): around 30%; Effect on LPS-stimulated NF-κB activity (NF-κB): did not show any effect on the activity of NF-κB; IC50 ([2]; PC-3, 22Rv1, and THP-1, read-out: IC50 against human cancer cell lines (summary)): 1 to 5 µM; selectivity index (SI) ([2]; IC50 for normal cell line/IC50 for cancerous cell line): higher than 2; IC50 ([4]; 24 h incubation, read-out: Time-dependent in vitro cytotoxicity (IC50), A2780, 24 h): 2.9 ± 0.7 µM; IC50 ([4]; 72 h incubation, read-out: Time-dependent in vitro cytotoxicity (IC50), A2780, 72 h): 3 ± 0.6 µM; IC50 ([4]; read-out: IC50, A2780, after 48 h and 72 h incubation, 48 h and 72 h incubation, insignificant changes): ~3 µM; IC50 ([4]; read-out: Time-dependent in vitro cytotoxicity (IC50), A2780, 48 h, 48 h incubation): 3 ± 0.3 µM
CCN(CC)C(=S)[S][Au][PH](c1ccccc1-c1ccccc1)(C(C)(C)C)C(C)(C)C [diethyldithiocarbamato-[(1,1′-biphenyl-2-yl)di-tert-butylphosphine] gold(I) complex]	–	–	–	–	–	–	–	–	–	–	–	Cells in G2/M arrest, A2780 (A2780 cells [14]): around 30%
[Au(tpy)Cl(2-TU)]	–	–	–	–	–	–	–	–	–	–	–	IC50 (Caco-2 cells): 0.51 ± 0.28 µM
